Key:
mouse TAAR1 = target: T1, mouse TAAR1 (Mus musculus, UniProt Q923Y8); experiment: TAAR1 radioligand binding with [3H]-rac-2-(1,2,3,4-tetrahydro-1-naphthyl)-2-imidazoline, membranes of stably transfected HEK293 cells; conditions: first value of the cell, read-out: Ki (μM) mouse/rat: mouse
T1 construct: expressed in transfected cells; host or cells: HEK293 (ATCC # CRL-1573), stably transfected with pIRESneo2 expression plasmid
Procedure: (§1) For the construction of expression plasmids the coding sequences of human, rat and mouse TAAR 1 were amplified from genomic DNA essentially as described by Lindemann et al.. The Expand High Fidelity PCR System (Roche Diagnostics) was used with 1.5 mM Mg^2+ and purified PCR products were cloned into pCR2.1-TOPO cloning vector (Invitrogen) following the instructions of the manufacturer. PCR products were subcloned into the pIRESneo2 vector (BD Clontech, Palo Alto, Calif.), and expression vectors were sequence verified before introduction in cell lines.
(§2) HEK293 cells (ATCC # CRL-1573) were cultured essentially as described by Lindemann et al. (2005). For the generation of stably transfected cell lines HEK293 cells were transfected with the pIRESneo2 expression plasmids containing the TAAR coding sequences (described above) with Lipofectamine 2000 (Invitrogen) according to the instructions of the manufacturer, and 24 hrs post transfection the culture medium was supplemented with 1 mg/ml G418 (Sigma, Buchs, Switzerland). After a culture period of about 10 d clones were isolated, expanded and tested for responsiveness to trace amines (all compounds purchased from Sigma) with the cAMP Biotrak Enzyme immunoassay (EIA) System (Amersham) following the non-acetylation EIA procedure provided by the manufacturer.
(§3) Cells at confluence were rinsed with ice-cold phosphate buffered saline without Ca^2+ and Mg^2+ containing 10 mM EDTA and pelleted by centrifugation at 1000 rpm for 5 min at 4° C. The pellet was then washed twice with ice-cold phosphate buffered saline and the cell pellet was frozen immediately by immersion in liquid nitrogen and stored until use at −80° C. The cell pellet was then suspended in 20 ml HEPES-NaOH (20 mM), pH 7.4 containing 10 mM EDTA, and homogenized with a Polytron (PT 3000, Kinematica) at 10,000 rpm for 10 s. The homogenate was centrifuged at 48,000×g for 30 min at 4° C. and the pellet resuspended in 20 ml HEPES-NaOH (20 mM), pH 7.4 containing 0.1 mM EDTA (buffer A), and homogenized with a Polytron at 10,000 rpm for 10 s. The homogenate was then centrifuged at 48,000×g for 30 min at 4° C. and the pellet resuspended in 20 ml buffer A, and homogenized with a Polytron at 10,000 rpm for 10 s. Protein concentration was determined by the method of Pierce (Rockford, Ill.). The homogenate was then centrifuged at 48,000×g for 10 min at 4° C., resuspended in HEPES-NaOH (20 mM), pH 7.0 including MgCl2 (10 mM) and […] homogenized with a Polytron at 10,000 rpm for 10 s.
(§4) The binding assay was performed at 4° C. in a final volume of 1 ml, and with an incubation time of 30 min. The radioligand [^3H]-rac-2-(1,2,3,4-tetrahydro-1-naphthyl)-2-imidazoline was used at a concentration equal to the calculated Kd value of 60 nM to give a bound at around 0.1% of the total added radioligand concentration, and a specific binding which represented approximately 70-80% of the total binding. Non-specific binding was defined as the amount of [^3H]-rac-2-(1,2,3,4-tetrahydro-1-naphthyl)-2-imidazoline bound in the presence of the appropriate unlabelled ligand (10 μM). Competing ligands were tested in a wide range of concentrations (10 pM-30 μM). […] Each experiment was performed in duplicate. All incubations were terminated by rapid filtration through UniFilter-96 plates (Packard Instrument Company) and glass filter GF/C, pre-soaked for at least 2 h in polyethylenimine 0.3%, and using a Filtermate 96 Cell Harvester (Packard Instrument Company). The tubes and filters were then washed 3 times with 1 ml aliquots of cold buffer B. Filters were not dried and soaked in Ultima gold (45 μl/well, Packard Instrument Company) and bound radioactivity was counted by a TopCount Microplate Scintillation Counter (Packard Instrument Company).

rat TAAR1 = target: T2, rat TAAR1 (Rattus norvegicus, UniProt Q923Y9); experiment: as above; conditions: second value of the cell, read-out: Ki (μM) mouse/rat: rat
T2 construct: expressed in transfected cells; host or cells: HEK293 (ATCC # CRL-1573), stably transfected with pIRESneo2 expression plasmid
T2 sequence (Q923Y9 whole entry): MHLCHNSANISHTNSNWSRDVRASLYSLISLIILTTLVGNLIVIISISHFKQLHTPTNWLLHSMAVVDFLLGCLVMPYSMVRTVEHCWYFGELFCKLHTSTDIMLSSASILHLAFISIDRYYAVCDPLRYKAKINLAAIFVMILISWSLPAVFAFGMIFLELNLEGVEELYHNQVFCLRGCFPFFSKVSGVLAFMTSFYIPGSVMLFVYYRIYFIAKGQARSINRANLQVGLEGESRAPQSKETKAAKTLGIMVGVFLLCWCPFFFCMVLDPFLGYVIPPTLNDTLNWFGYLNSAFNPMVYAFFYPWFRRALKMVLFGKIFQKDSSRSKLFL
Procedure: as §1, §2, §3, §4

T1 sequence (Q923Y8 whole entry): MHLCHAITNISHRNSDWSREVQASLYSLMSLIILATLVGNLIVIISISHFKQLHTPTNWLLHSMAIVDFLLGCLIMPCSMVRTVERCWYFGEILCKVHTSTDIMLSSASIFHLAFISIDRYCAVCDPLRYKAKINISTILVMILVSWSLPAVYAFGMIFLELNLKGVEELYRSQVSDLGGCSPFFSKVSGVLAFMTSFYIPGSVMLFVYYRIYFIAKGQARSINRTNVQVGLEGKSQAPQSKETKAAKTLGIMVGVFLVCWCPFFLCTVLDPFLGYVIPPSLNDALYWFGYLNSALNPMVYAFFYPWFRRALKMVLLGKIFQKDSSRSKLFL

Compound	Ki (mouse TAAR1)	Ki (rat TAAR1)
NC1=N[C@@H](CCc2ccc(NC(=O)c3cncc(Cl)c3)cc2)CO1 [Example 124, (S)-N-(4-(2-(2-Amino-4,5-dihydrooxazol-4-yl)ethyl)phenyl)-5-chloronicotinamide]	0.004 µM	0.0061 µM
NC1=N[C@@H](CCc2ccc(NC(=O)c3cnc(Cl)c(Cl)c3)cc2)CO1 [Example 109, N-{4-[2-((S)-2-Amino-4,5-dihydro-oxazol-4-yl)-ethyl]-phenyl}-5,6-dichloro-nicotinamide]	0.0006 µM	0.0016 µM
NC1=N[C@@H](CCc2ccc(N3Cc4ccc(Cl)cc4C3=O)cc2)CO1 [Example 186, 2-{4-[2-((S)-2-Amino-4,5-dihydro-oxazol-4-yl)-ethyl]-phenyl}-6-chloro-2,3-dihydro-isoindol-1-one]	0.0029 µM	0.001 µM
NC1=N[C@@H](CCc2ccc(NC(=O)c3ccc(F)cc3)cc2)CO1 [Example 16, N-{4-[2-((S)-2-Amino-4,5-dihydro-oxazol-4-yl)-ethyl]-phenyl}-4-fluoro-benzamide]	0.0008 µM	0.0003 µM
CCOc1cnc(C(=O)Nc2ccc(CC[C@@H]3N=C(N)O[C@H]3C)cc2)cn1 [Example 218, 5-Ethoxy-pyrazine-2-carboxylic acid {4-[2-((4S,5S)-2-amino-5-methyl-4,5-dihydro-oxazol-4-yl)-ethyl]-phenyl}-amide]	0.0014 µM	0.0035 µM
Cc1nc(C(=O)Nc2ccc(CC[C@H]3COC(N)=N3)cc2)c(C(F)(F)F)o1 [Example 216, (S)-N-(4-(2-(2-Amino-4,5-dihydrooxazol-4-yl)ethyl)phenyl)-2-methyl-5-(trifluoromethyl)oxazole-4-carboxamide]	0.0027 µM	0.0061 µM
C#Cc1ccc(C(=O)Nc2ccc(CC[C@H]3COC(N)=N3)cc2)cc1 [Example 62, N-{4-[2-((S)-2-Amino-4,5-dihydro-oxazol-4-yl)-ethyl]-phenyl}-4-ethynyl-benzamide]	0.0003 µM	0.0005 µM
CO[C@H](C(=O)Nc1ccc(CC[C@H]2COC(N)=N2)cc1)c1ccccc1 [Example 74, (S)-N-{4-[2-((S)-2-Amino-4,5-dihydro-oxazol-4-yl)-ethyl]-phenyl}-2-methoxy-2-phenyl-acetamide]	0.009 µM	0.0073 µM
CCOc1cnc(C(=O)Nc2ccc(CC[C@H]3COC(N)=N3)cc2)cn1 [Example 161, (S)-N-(4-(2-(2-Amino-4,5-dihydrooxazol-4-yl)ethyl)phenyl)-5-ethoxypyrazine-2-carboxamide]	0.001 µM	0.0012 µM
NC1=N[C@@H](CCc2ccc(NC(=O)Oc3ccc(F)cc3)cc2)CO1 [Example 148, {4-[2-((S)-2-Amino-4,5-dihydro-oxazol-4-yl)-ethyl]-phenyl}-carbamic acid 4-fluoro-phenyl ester]	0.0005 µM	0.0006 µM
NC1=N[C@@H](CCc2ccc(NC(=O)c3ccc(Cl)cc3Cl)cc2)CO1 [Example 137, (S)-N-(4-(2-(2-Amino-4,5-dihydrooxazol-4-yl)ethyl)phenyl)-2,4-dichlorobenzamide]	0.0003 µM	0.0006 µM
CC(C)c1sc(N(C)C)nc1C(=O)Nc1ccc(CC[C@H]2COC(N)=N2)cc1 [Example 189, (S)-N-(4-(2-(2-Amino-4,5-dihydrooxazol-4-yl)ethyl)phenyl)-2-(dimethylamino)-5-isopropylthiazole-4-carboxamide]	0.0008 µM	0.0018 µM
NC1=N[C@@H](CCc2ccc(NC(=O)c3ccc4cnccc4n3)cc2)CO1 [Example 104, [1,6]Naphthyridine-2-carboxylic acid {4-[2-((S)-2-amino-4,5-dihydro-oxazol-4-yl)-ethyl]-phenyl}-amide]	0.0034 µM	0.0014 µM
N#Cc1ccc(C(=O)Nc2ccc(CC[C@H]3COC(N)=N3)cc2)nc1 [Example 119, (S)-N-(4-(2-(2-Amino-4,5-dihydrooxazol-4-yl)ethyl)phenyl)-5-cyanopicolinamide]	0.0015 µM	0.0044 µM
CCc1ocnc1C(=O)Nc1ccc(CC[C@H]2COC(N)=N2)cc1 [Example 213, (S)-N-(4-(2-(2-Amino-4,5-dihydrooxazol-4-yl)ethyl)phenyl)-5-ethyloxazole-4-carboxamide]	0.0015 µM	0.0022 µM
NC1=N[C@@H](CCc2ccc(NC(=O)Nc3ccc(C(F)(F)F)cc3)cc2)CO1 [Example 15, 1-{4-[2-((S)-2-Amino-4,5-dihydro-oxazol-4-yl)-ethyl]-phenyl}-3-(4-trifluoromethyl-phenyl)-urea]	0.0001 µM	0.0001 µM
Cc1nc(C(=O)Nc2ccc(CC[C@H]3COC(N)=N3)cc2)c(C)o1 [Example 179, (S)-N-(4-(2-(2-Amino-4,5-dihydrooxazol-4-yl)ethyl)phenyl)-2,5-dimethyloxazole-4-carboxamide]	0.0059 µM	0.0023 µM
N#Cc1ccc(NC(=O)c2ccc(CC[C@H]3COC(N)=N3)cc2)cc1 [Example 142, (S)-4-(2-(2-Amino-4,5-dihydrooxazol-4-yl)ethyl)-N-(4-cyanophenyl)benzamide]	0.0044 µM	0.0011 µM
NC1=N[C@@H](CCc2ccc(NC(=O)c3cc(F)cnc3F)cc2)CO1 [Example 107, N-{4-[2-((S)-2-Amino-4,5-dihydro-oxazol-4-yl)-ethyl]-phenyl}-2,5-difluoro-nicotinamide]	0.0014 µM	0.0012 µM
CCc1cnc(C(=O)Nc2ccc(CC[C@H]3COC(N)=N3)cc2)cn1 [Example 208, (S)-N-(4-(2-(2-Amino-4,5-dihydrooxazol-4-yl)ethyl)phenyl)-5-ethylpyrazine-2-carboxamide]	0.0028 µM	0.0023 µM
CC(C(=O)Nc1ccc(CC[C@H]2COC(N)=N2)cc1)c1ccc(Cl)cc1 (stereo partly drawn) [Example 58, N-{4-[2-((S)-2-Amino-4,5-dihydro-oxazol-4-yl)-ethyl]-phenyl}-2-(4-chloro-phenyl)-propionamide]	0.0014 µM	0.0007 µM
NC1=N[C@@H](CCc2ccc(NC(=O)c3cnc(N4CCC(F)(F)CC4)cn3)cc2)CO1 [Example 164]	0.0018 µM	0.0027 µM
CCc1cncc(C(=O)Nc2ccc(CC[C@H]3COC(N)=N3)cc2)n1 [Example 211, (S)-N-(4-(2-(2-Amino-4,5-dihydrooxazol-4-yl)ethyl)phenyl)-6-ethylpyrazine-2-carboxamide]	0.0023 µM	0.0024 µM
NC1=N[C@@H](CCc2ccc(NC(=O)c3ccnc(Cl)c3)cc2)CO1 [Example 173, (S)-N-(4-(2-(2-Amino-4,5-dihydrooxazol-4-yl)ethyl)phenyl)-2-chloroisonicotinamide]	0.0014 µM	0.0014 µM
COc1ncc(C(=O)Nc2ccc(CC[C@H]3COC(N)=N3)cc2)cn1 [Example 83, 2-Methoxy-pyrimidine-5-carboxylic acid {4-[2-((S)-2-amino-4,5-dihydro-oxazol-4-yl)-ethyl]-phenyl}-amide]	0.0074 µM	0.0052 µM
NC1=N[C@@H](CCc2ccc(NC(=O)c3cc(Cl)nc(Cl)c3)cc2)CO1 [Example 175, (S)-N-(4-(2-(2-Amino-4,5-dihydrooxazol-4-yl)ethyl)phenyl)-2,6-dichloroisonicotinamide]	0.0008 µM	0.0009 µM
NC1=N[C@@H](CCc2ccc(NC(=O)c3nc4ccccc4[nH]3)cc2)CO1 [Example 86, 1H-Benzoimidazole-2-carboxylic acid {4-[2-((S)-2-amino-4,5-dihydro-oxazol-4-yl)-ethyl]-phenyl}-amide]	0.0022 µM	0.0006 µM

From patent US8354441B2, “Oxazoline derivatives” (Hoffmann-La Roche Inc., priority 2009, dated 2013)
